Here are results for three molecules from patent US20030171408A1, “Therapeutic method of delivering a medicament to avoid irritating effects on membranes of user” (priority 2002, published 2003).

The conditions of data set [1]: cited from earlier work.
For data set [2] the following is noted: oral inhaler, water solution. Here is the method: A subject is administered nicotine by means of an oral inhaler. The nicotine is prepared as the diacesulfamate and is prepared in water solution.
For data set [3] the following is noted: metered nasal spray 0.4 mg nicotine equivalent. How it is done: A subject who was an addicted smoker was provided a metered nasal spray delivering 0.4 mg of nicotine equivalent in form of nicotine diacesulfamate. The nicotine salt was dissolved in water without any other additive ingredients.
For data set [4] the following is noted: powder nasal spray, encapsulated in starch microspheres. How it is done: A subject is administered nicotine by means of a powder nasal spray. The nicotine is prepared as the diacesulfamate and is encapsulated in starch microspheres.
The conditions of data set [5]: nasal, single doses of one mg, in man; cited from earlier work.

For the molecule `CC1=CC(=O)NS(=O)(=O)O1` [Acesulfamic acid, 6-Methyl-1,2,3-Oxathiazin-4(3H)1,2,2-dioxide H], the “solubility in alcohol and non-polar solvents” value in data set [1] (alcohol and non-polar solvents) is “soluble”. For the same molecule, in data set [1] (water), the solubility in water result is “only sparingly soluble”.
With `CC1=CC(=O)NS(=O)(=O)O1.CC1=CC(=O)NS(=O)(=O)O1.CN1CCC[C@H]1c1cccnc1` [nicotine diacesulfamate], in data set [2], the “burning feeling in buccal area, throat or lungs” value is on record as “No burning feeling is noted” and the “relief from craving to smoke” value is on record as “relief from craving to smoke soon after use”. The “relief from desire to smoke” value in data set [3] (addicted smoker, dissolved in water, once in each nostril) is listed as “relief from desire to smoke within two minutes”. Further, the “taste and feelings in the nostril” value in data set [3] (in water) is reported as “not unpleasant, but distinctive”. Besides, the “irritation to nasal mucosa, throat or lungs” value in data set [3] (in water, once in each nostril) was “No report was made of any irritation to nasal mucosa, nor to the throat or lungs”. For the same molecule, in data set [4], the “burning feeling on administration” value is “No burning feeling is noted” and the “relief from cravings to smoke” value was “relief from the cravings to smoke soon after use”.
On to `CN1CCCC1c1cccnc1` (stereo not shown) [nicotine], for which, in data set [5], the “time to maximum concentration” value was no more than 10 min.
